Data set [1] in a line: AUC (0 to 24 hrs) in Sprague-Dawley rat at 10 mg/kg, po. Format: ADME, organism-based. Also on record: time < 24 hr, dose 10 mg/kg, route oral. The conditions noted are these: plasma.
Another data set deals with T1, Androgen receptor (Homo sapiens, UniProt P10275).
T1 sequence (P10275 whole entry): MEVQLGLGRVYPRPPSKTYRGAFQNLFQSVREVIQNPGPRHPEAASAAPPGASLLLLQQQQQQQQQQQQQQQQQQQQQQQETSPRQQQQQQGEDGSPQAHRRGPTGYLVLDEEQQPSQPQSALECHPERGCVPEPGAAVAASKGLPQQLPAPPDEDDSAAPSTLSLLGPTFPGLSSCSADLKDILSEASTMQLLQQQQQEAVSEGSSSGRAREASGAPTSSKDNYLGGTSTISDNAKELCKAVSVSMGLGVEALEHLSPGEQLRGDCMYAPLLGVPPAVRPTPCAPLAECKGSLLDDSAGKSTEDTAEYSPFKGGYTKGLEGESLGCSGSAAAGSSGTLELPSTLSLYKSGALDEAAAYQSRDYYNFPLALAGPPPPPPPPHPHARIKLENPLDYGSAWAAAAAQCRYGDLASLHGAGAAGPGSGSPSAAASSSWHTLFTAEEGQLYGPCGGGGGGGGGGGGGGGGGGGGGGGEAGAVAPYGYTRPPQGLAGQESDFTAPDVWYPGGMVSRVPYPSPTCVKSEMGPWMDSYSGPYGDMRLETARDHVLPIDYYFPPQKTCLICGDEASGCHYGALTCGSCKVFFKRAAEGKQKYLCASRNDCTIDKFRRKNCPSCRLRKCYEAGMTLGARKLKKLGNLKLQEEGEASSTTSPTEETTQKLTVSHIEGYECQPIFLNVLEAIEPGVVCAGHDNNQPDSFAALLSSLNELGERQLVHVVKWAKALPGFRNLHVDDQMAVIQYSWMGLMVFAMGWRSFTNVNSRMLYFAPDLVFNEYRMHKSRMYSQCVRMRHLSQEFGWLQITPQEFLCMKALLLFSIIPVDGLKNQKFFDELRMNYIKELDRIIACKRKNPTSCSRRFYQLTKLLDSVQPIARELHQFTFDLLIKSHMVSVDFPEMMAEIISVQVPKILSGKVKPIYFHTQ
Briefly: Displacement of [3H]testosterone from AR.

Data set [2] is described as follows: Mean residence time in Sprague-Dawley rat at 10 mg/kg, po. Format: ADME, organism-based. Also on record: dose 10 mg/kg, route oral. The note with it: in vivo.
Data set [3] has as its target T2, Mineralocorticoid receptor (Homo sapiens, UniProt P08235).
T2 sequence (P08235 whole entry): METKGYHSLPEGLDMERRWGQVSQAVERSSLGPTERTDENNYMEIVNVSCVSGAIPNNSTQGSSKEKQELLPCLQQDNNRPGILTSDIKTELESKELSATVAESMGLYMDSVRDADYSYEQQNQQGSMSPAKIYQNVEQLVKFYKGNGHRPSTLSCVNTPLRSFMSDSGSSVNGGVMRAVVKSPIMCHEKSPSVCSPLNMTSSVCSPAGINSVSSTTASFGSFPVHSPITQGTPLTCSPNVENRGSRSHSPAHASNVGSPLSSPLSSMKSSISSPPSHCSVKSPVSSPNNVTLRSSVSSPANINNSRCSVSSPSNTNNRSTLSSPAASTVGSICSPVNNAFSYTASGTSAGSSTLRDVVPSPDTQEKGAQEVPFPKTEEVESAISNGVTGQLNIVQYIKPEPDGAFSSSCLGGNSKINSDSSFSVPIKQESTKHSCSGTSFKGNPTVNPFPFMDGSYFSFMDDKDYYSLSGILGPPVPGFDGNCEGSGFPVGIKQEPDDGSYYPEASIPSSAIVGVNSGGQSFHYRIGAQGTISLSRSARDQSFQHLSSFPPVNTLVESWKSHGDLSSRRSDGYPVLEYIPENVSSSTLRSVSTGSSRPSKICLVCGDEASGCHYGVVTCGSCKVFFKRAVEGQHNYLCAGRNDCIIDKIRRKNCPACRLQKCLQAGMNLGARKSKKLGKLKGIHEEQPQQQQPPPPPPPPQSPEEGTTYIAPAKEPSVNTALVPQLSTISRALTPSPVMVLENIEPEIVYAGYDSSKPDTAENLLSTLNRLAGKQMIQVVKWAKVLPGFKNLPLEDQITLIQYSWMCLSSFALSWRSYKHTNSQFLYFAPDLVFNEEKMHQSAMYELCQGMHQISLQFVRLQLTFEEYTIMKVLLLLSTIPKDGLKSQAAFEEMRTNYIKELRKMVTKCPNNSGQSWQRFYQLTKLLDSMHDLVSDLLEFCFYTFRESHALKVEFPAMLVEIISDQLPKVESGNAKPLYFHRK
Description: Antagonist activity at human MR transfected in human COS1 cells after 1 day by luciferase reporter gene assay

A further data set addresses T3, Glucocorticoid receptor (Homo sapiens, UniProt P04150).
T3 sequence (P04150 whole entry): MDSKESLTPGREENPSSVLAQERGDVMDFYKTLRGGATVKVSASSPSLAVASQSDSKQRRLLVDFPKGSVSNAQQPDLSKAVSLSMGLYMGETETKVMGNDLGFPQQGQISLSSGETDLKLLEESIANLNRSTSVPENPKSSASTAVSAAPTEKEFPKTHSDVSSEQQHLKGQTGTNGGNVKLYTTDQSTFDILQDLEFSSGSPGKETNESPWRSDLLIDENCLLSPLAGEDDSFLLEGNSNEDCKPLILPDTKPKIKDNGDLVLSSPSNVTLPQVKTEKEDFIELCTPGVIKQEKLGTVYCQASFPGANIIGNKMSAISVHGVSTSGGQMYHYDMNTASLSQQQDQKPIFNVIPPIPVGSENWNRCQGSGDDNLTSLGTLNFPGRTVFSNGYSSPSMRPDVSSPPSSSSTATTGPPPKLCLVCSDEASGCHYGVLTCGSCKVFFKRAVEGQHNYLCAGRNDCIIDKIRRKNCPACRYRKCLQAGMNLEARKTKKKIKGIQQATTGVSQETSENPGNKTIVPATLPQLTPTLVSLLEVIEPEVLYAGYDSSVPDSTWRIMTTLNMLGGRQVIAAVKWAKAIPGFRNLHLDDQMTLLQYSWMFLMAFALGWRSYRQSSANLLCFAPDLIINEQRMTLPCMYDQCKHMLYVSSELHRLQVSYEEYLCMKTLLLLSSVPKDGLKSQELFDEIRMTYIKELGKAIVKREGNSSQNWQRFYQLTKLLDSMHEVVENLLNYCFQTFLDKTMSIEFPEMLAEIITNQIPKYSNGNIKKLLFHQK
Briefly: Displacement of [3H]dexomethasone from GR.

For data set [4], the target named is T2, Mineralocorticoid receptor. Briefly: biochemical.
Description: Displacement of [3H]aldosterone from cytosolic human MR expressed in HEK293 cells after 16 hrs by scintillation counting

A value given as a limit tells only on which side of the number the result lay.

In general, AUC(0-t) refers to exposure summed from dosing to a finite time, without extrapolation to infinity. A higher AUC(0-t) goes with more exposure. In general, IC50 refers to the point on the concentration scale where inhibition reaches its midpoint. Read a low IC50 as higher potency. For orientation: MRT means a mean duration of stay, worked out from the concentration-time curve.

Consider `Cc1cc(F)ccc1-n1nc(C(F)(F)F)cc1-c1ccc2c(c1)NC(=O)CO2`, for which the AUC(0-t) at 24 h in data set [1] worked out at 3830 ng·h/mL. Besides, the IC50 is over 10000 nM on Androgen receptor, 43 nM in data set [3], 1800 nM on Glucocorticoid receptor and 41 nM in data set [4]. In addition, the mean residence time (MRT) in data set [2] came out at 4.39 h.
